Measurements published in patent publication US10875876B2, “Cyclized sulfamoylarylamide derivatives and the use thereof as medicaments for the treatment of hepatitis B” (priority 2015, dated 2020).
Like-named read-outs stand apart in the source and are kept apart here.

Assays:
HBV = assay: anti HBV activity, HepG2.117 cell line, intracellular HBV DNA by realtime PCR; assay type: cell-based; conditions: HepG2.117 cell line (Tet-off), 3 days of treatment, intracellular HBV DNA quantified by realtime PCR, read-out: HBV-AVE-HepG2.117 EC50
Experimental: The anti HBV activity was measured using the HepG2.117 cell line, a stable, inducibly HBV producing cell line, which replicates HBV in the absence of doxicycline (Tet-off system). For the antiviral assay, HBV replication was induced, followed by a treatment with serially diluted compound in 96-well plates in duplicate. After 3 days of treatment, the antiviral activity was determined by quantification of intracellular HBV DNA using realtime PCR and an HBV specific primer set and probe.

[1] = Cytotoxicity in HepG2 cells, Resazurin assay; conditions: human, HepG2 cells, TOX-HepG2-4 d CC50 (μM), HepG2 cells incubated for 4 days, viability by Resazurin assay
[2] = Hepatitis B virus, HepG2.117, 72 h

Row | SMILES | EC50 (HBV; [2]) [nM] | CC50 at 4 days [1] [µM] | EC50 (HBV) [nM]
1 | Cc1cc(CC2(C)COc3c(cn(C)c3C(=O)Nc3ccc(F)c(F)c3)S(=O)(=O)N2)n(C)n1 (racemic) [Compound 175, N-(3,4-difluorophenyl)-3-[(2,5-dimethylpyrazol-3-yl)methyl]-3,7-dimethyl-1,1-dioxo-2,4-dihydropyrrolo[3,4-b][1,4,5]oxathiazepine-6-carboxamide] | 4 | > 25 | 
2 | Cc1cc(CC2(C)COc3c(cn(C)c3C(=O)Nc3ccc(F)c(C(F)F)c3)S(=O)(=O)N2)n(C)n1 (racemic) [Compound 176, N-[3-(difluoromethyl)-4-fluoro-phenyl]-3-[(2,5-dimethylpyrazol-3-yl)methyl]-3,7-dimethyl-1,1-dioxo-2,4-dihydropyrrolo[3,4-b][1,4,5]oxathiazepine-6-carboxamide] | 4 | > 25 | 
3 | Cc1cc(C2(C)COc3c(cn(C)c3C(=O)Nc3ccc(F)c(C(F)F)c3)S(=O)(=O)N2)no1 (racemic) [Compound 181, N-[3-(difluoromethyl)-4-fluoro-phenyl]-3,7-dimethyl-3-(5-methylisoxazol-3-yl)-1,1-dioxo-2,4-dihydropyrrolo[3,4-b][1,4,5]oxathiazepine-6-carboxamide] | 8 | > 25 | 
4 | Cn1ccc(C2(C)COc3c(cn(C)c3C(=O)Nc3ccc(F)c(F)c3)S(=O)(=O)N2)n1 (racemic) [Compound 192, N-(3,4-difluorophenyl)-3,7-dimethyl-3-(1-methylpyrazol-3-yl)-1,1-dioxo-2,4-dihydropyrrolo[3,4-b][1,4,5]oxathiazepine-6-carboxamide] | 56 | > 25 | 
5 | Cn1cc2c(c1C(=O)Nc1ccc(F)c(Cl)c1)OCC1(CCOC1)NS2(=O)=O (racemic) [Compound 212, N-(3-chloro-4-fluoro-phenyl)-7-methyl-1,1-dioxo-spiro[2,4-dihydropyrrolo[3,4-b][1,4,5]oxathiazepine-3,3′-tetrahydrofuran]-6-carboxamide] | 7 | > 25 | 
6 | CC1C=Cc2c(cn(C)c2C(=O)Nc2ccc(F)c(F)c2)S(=O)(=O)N1 (single isomer, unassigned) [Compound 7a, N-(3,4-difluorophenyl)-3,7-dimethyl-1,1-dioxo-2,3-dihydropyrrolo-[3,4-f]thiazepine-6-carboxamide] |  | > 25 | 130
7 | CC1CCc2c(cn(C)c2C(=O)Nc2ccc(F)c(F)c2)S(=O)(=O)N1 (single isomer, unassigned) [Compound 10a, N-(3,4-difluorophenyl)-3,7-dimethyl-1,1-dioxo-2,3,4,5-tetrahydropyrrolo[3,4-f]thiazepine-6-carboxamide] |  | > 25 | 220
8 | CC1COc2c(cn(C)c2C(=O)Nc2ccc(F)c(F)c2)S(=O)(=O)N1 (single isomer, unassigned) [Compound 14a, N-(3,4-difluorophenyl)-3,7-dimethyl-1,1-dioxo-3,4-dihydro-2H-pyrrolo-[3,4-b][1,4,5]oxathiazepine-6-carboxamide] |  | > 25 | 250
9 | CC1C/C=C\c2c(cn(C)c2C(=O)Nc2ccc(F)c(F)c2)S(=O)(=O)N1 (single isomer, unassigned) [Compound 15a, (5Z)—N-(3,4-difluorophenyl)-3,8-dimethyl-1,1-dioxo-3,4-dihydro-2H-pyrrolo[3,4-g]thiazocine-7-carboxamide] |  | > 25 | 78
10 | CC1C=Cc2c(cn(C)c2C(=O)Nc2cc(F)c(F)c(F)c2)S(=O)(=O)N1 (single isomer, unassigned) [Compound 29, (*S)-3,7-dimethyl-1,1-dioxo-N-(3,4,5-trifluorophenyl)-2,3-dihydropyrrolo[3,4-f]thiazepine-6-carboxamide] | 5 | > 25 | 
11 | C[C@H]1C=Cc2c(cn(C)c2C(=O)Nc2ccc(F)c(C(F)(F)F)c2)S(=O)(=O)N1 (single isomer, unassigned) [Compound 30, (*S)—N-[4-fluoro-3-(trifluoromethyl)phenyl]-3,7-dimethyl-1,1-dioxo-2,3-dihydropyrrolo[3,4-f]thiazepine-6-carboxamide] | 13 | > 25 | 
12 | Cc1cc(NC(=O)c2c3c(cn2C)S(=O)(=O)N[C@@H](C)C=C3)ccc1F (single isomer, unassigned) [Compound 31, (*S)—N-(4-fluoro-3-methyl-phenyl)-3,7-dimethyl-1,1-dioxo-2,3-dihydropyrrolo[3,4-f]thiazepine-6-carboxamide] | 9 | > 25 | 
13 | C[C@H]1C=Cc2c(cn(C)c2C(=O)Nc2ccc(F)c(C#N)c2)S(=O)(=O)N1 (single isomer, unassigned) [Compound 32, (*S)—N-(3-cyano-4-fluoro-phenyl)-3,7-dimethyl-1,1-dioxo-2,3-dihydropyrrolo[3,4-f]thiazepine-6-carboxamide] | 3 | > 25 | 
14 | C[C@H]1CCc2c(cn(C)c2C(=O)Nc2cc(F)c(F)c(F)c2)S(=O)(=O)N1 (single isomer, unassigned) [Compound 39, (3*S)-3,7-dimethyl-1,1-dioxo-N-(3,4,5-trifluorophenyl)-2,3,4,5-tetrahydropyrrolo[3,4-f]thiazepine-6-carboxamide] | 3 | > 25 | 
15 | C[C@H]1CCc2c(cn(C)c2C(=O)Nc2ccc(F)c(C(F)(F)F)c2)S(=O)(=O)N1 (single isomer, unassigned) [Compound 40, (3*S)—N-[4-fluoro-3-(trifluoromethyl)phenyl]-3,7-dimethyl-1,1-dioxo-2,3,4,5-tetrahydropyrrolo[3,4-f]thiazepine-6-carboxamide] | 22 | > 25 | 
16 | Cc1cc(NC(=O)c2c3c(cn2C)S(=O)(=O)N[C@@H](C)CC3)ccc1F (single isomer, unassigned) [Compound 41, (3*S)—N-(4-fluoro-3-methyl-phenyl)-3,7-dimethyl-1,1-dioxo-2,3,4,5-tetrahydropyrrolo[3,4-f]thiazepine-6-carboxamide] | 8 | > 25 | 
17 | C[C@H]1C=Cc2c(cn(C)c2C(=O)Nc2ccnc(C(F)(F)F)c2)S(=O)(=O)N1 (single isomer, unassigned) [Compound 42, (3*S)-3,7-dimethyl-1,1-dioxo-N-[2-(trifluoromethyl)-4-pyridyl]-2,3-dihydropyrrolo[3,4-f]thiazepine-6-carboxamide] | 81 | > 25 | 
18 | C[C@H]1C=Cc2c(cn(C)c2C(=O)Nc2ccnc(Br)c2)S(=O)(=O)N1 (single isomer, unassigned) [Compound 50, (3*S)—N-(2-bromo-4-pyridyl)-3,7-dimethyl-1,1-dioxo-2,3-dihydropyrrolo[3,4-f]thiazepine-6-carboxamide] | 2 | > 25 | 
19 | C[C@H]1C=Cc2c(cn(C)c2C(=O)Nc2ccc(F)c(C(F)F)c2)S(=O)(=O)N1 (single isomer, unassigned) [Compound 51, (3*S)—N-[3-(difluoromethyl)-4-fluoro-phenyl]-3,7-dimethyl-1,1-dioxo-2,3-dihydropyrrolo[3,4-f]thiazepine-6-carboxamide] | < 2 | > 25 | 
